Data taken from patent US10189839B2, “Tricyclic imidazole compounds as inhibitors of tryptophan hydroxylase” (ACTELION PHARMACEUTICALS LTD, priority 2013, dated 2019).

Key:
5HT [1] = settings: mice; cited from earlier work
5HT [2] = settings: 200 mg/kg i.p. qid for 3 days; cited from earlier work
cholangiocarcinoma = settings: xenograft model of cholangiocarcinoma; cited from earlier work
5HT [3] = settings: in vivo; cited from earlier work
[4] = test system: blood 5HT and urinary 5HIAA; settings: phase IIA study, qid; cited from earlier work
full length human TPH1 = target: T1, full length human TPH1 (Homo sapiens, UniProt P17752); experiment: Biochemical in vitro assay using fluorescence readout (TPH1 enzyme activity); settings: Table 1, mean where determined several times
T1 construct: To generate the enzyme, full length human TPH1 is cloned into the plasmid pET20b(+); made in house; host or cells: E. coli
T1 sequence (P17752 1-444): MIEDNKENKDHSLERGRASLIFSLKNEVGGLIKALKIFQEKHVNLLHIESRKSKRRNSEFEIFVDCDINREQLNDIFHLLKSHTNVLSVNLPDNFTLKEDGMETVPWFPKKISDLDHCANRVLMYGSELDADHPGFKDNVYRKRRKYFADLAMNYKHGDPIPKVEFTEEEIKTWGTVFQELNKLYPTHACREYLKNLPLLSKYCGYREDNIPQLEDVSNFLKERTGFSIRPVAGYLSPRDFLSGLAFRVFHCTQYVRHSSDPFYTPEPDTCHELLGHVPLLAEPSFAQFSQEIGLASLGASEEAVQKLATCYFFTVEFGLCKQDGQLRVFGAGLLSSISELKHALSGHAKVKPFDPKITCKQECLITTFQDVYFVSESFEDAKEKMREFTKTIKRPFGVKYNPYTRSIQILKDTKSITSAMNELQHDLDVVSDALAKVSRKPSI
In short: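 E. coli-expressed full-length human TPH1 (40-80 nM), affinity- and size-exclusion-purified, incubated 60 min at 15° C. in 0.1M Tris-HCl pH 7.6 with 1 mM DTT, 0.2 mg/ml catalase, 100 μM 6-methyltetrahydropterine and 40 μM L-tryptophan. 5-Hydroxy-L-tryptophan read by fluorescence (ex 300/em 540 nm) after HClO4 quench; IC50 versus vehicle, mean where repeated.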

Question: Which “brain 5HT concentrations” value (5HT [1]) does the source give for `Nc1nc(OC(c2ccc(-c3cccc(F)c3)cc2)C(F)(F)F)cc(-c2ccc(C[C@H](N)C(=O)O)cc2)n1` (stereo partly drawn) [LP533401] here?
Answer: Its value is “without effecting brain concentrations”.

Question: What about the “gut 5HT” value (5HT [1]) of the same molecule?
Answer: Its value is “lower gut 5HT”.

Question: For `N[C@@H](Cc1ccc(Cl)cc1)C(=O)O` (racemic) [PCA, p-chlorophenylalanine], which “5HT in the brain” value (5HT [2]) is on record?
Answer: Its value is about 20 % original.

Question: What about the “5HT in the gut” value (5HT [2]) of the same molecule?
Answer: Its value is about 50 % original.

Question: And the tumor volume (cholangiocarcinoma)?
Answer: Its tumor volume is “dramatic reduction in tumor volume”.

Question: For `COc1cccc(-c2ccc([C@@H](Oc3cc(-c4ccc(C[C@H](N)C(=O)O)cc4)nc(N)n3)C(F)(F)F)cc2)c1` [LX1031, (S)-2-Amino-3-(4-{2-amino-6-[(R)-2,2,2-trifluoro-1-(3′-methoxy-biphenyl-4-yl)-ethoxy]-pyrimidin-4-yl}-phenyl)-propionic acid], which “5HT in the colon” value (5HT [3]) is on record?
Answer: The value was “only a minor reduction observed in the colon”.

Question: And the “5HT in the jejunum” value (5HT [3])?
Answer: Its value is “lowers 5HT in the jejunum”.

Question: What about the “brain 5HT” value (5HT [3]) of the same molecule?
Answer: Its value is “no effect on brain 5HT”.

Question: And the “blood 5HT” value [4]?
Answer: Its value is “did not affect blood 5HT”.

Question: What about the “urinary 5HIAA reduction” value [4] of the same molecule?
Answer: Its value is “up to 30%”.

Question: For `O=C(NC1CC1)c1ccc(OCC(=O)N2CCc3nc4n(c3C2c2ccc(C3CC3)cc2F)CCS4)c(Cl)n1` (stereo not drawn) [Example 4.3.3, 6-chloro-N-cyclopropyl-5-(2-(5-(4-cyclopropyl-2-fluorophenyl)-2,3,7,8-tetrahydrothiazolo[2′,3′:2,3]imidazo[4,5-c]pyridin-6(5H)-yl)-2-oxoethoxy)picolinamide], which IC50 (full length human TPH1) is on record?
Answer: Its IC50 is 14 nM.

Question: For `CS(=O)(=O)Nc1ccc(OCC(=O)N2CCc3nc4n(c3C2c2ccc(Cl)cc2F)CCOC4)c(Cl)n1` (stereo not drawn) [Example 6.1.2, N-(6-chloro-5-(2-(6-(4-chloro-2-fluorophenyl)-3,4,8,9-tetrahydro-1H-pyrido[4′,3′:4,5]imidazo[2,1-c][1,4]oxazin-7(6H)-yl)-2-oxoethoxy)pyridin-2-yl)methanesulfonamide], which IC50 (full length human TPH1) is on record?
Answer: The IC50 was 18 nM.
